Active and inactive are the calls of the source. The rule behind the calls is not given here.
Columns and labels:
Influenza A virus [1] = experiment: (§1) Anti-viral activity against Influenza A virus H3N2 A/Hong Kong/11/1968 infected in human A549 cells assessed as decrease in viral replication at 1 uM incubated with compound and virus for 1 hr followed by inoculum removal and media replacement with compound measured after 48 hrs by extracting viral supernatant from cells and transferring supernatant to MDCK cells for measuring plaque formation; assay type: functional, organism-based; details: time 49.0 hrs
Influenza A virus [2] = experiment: as §1, with “log reduction” for “decrease”, “titer” for “replication”; assay type: functional; details: time 49 hrs

Row | SMILES | Activity (Influenza A virus [1]) | log10PFU/ml (Influenza A virus [2])
1 | CN1CCN(c2ccc(-c3nc4ncc(Cl)cn4c3NC3CCCCC3)c(F)c2)CC1 | Active | 
2 | COc1cc(OC)cc(-c2nc3ncccn3c2NC2CCCCC2)c1 | Active | 1.5
3 | Cc1cc(C)n2c(NC3CCCCC3)c(-c3ccnc(Cl)c3)nc2n1 | Active | 
4 | Fc1ccc(-c2nc3ncccn3c2NC2CCCCC2)cc1F | Active | 
5 | Clc1cnc2nc(-c3ccccc3)c(NC3CCCCC3)n2c1 | Active | 1.5
6 | CCOC(=O)c1c(CSc2ccccc2)n(C)c2cc(Br)c(O)c(CN(C)C)c12 [UMIFENOVIR] | Active | 1.5
7 | Oc1ccc(-c2nc3ncccn3c2NC2CCCCC2)c(F)c1 | Active | 1.5
8 | Fc1ccc(-c2nc3ncccn3c2NC2CCCCC2)cc1N1CCOCC1 | Active | 1.5
9 | COc1ccc(-c2nc3ncccn3c2NC2CCCCC2)cc1 | Active | 
10 | Fc1cc(OCc2ccc(C(F)(F)F)cc2)ccc1-c1nc2ncccn2c1NC1CCCCC1 | Active | 1.5
11 | COCOc1ccc(-c2nc3ncccn3c2NC2CCCCC2)c(F)c1 | Active | 1.5

Reference: ChEMBL document CHEMBL6134909 (Eur J Med Chem, 2025)
